Paper PMC2367043, “Effects of Ursolic Acid and its Analogues on Soybean 15-Lipoxygenase Activity and the Proliferation Rate of A human Gastric Tumour Cell Line” (Mediators of Inflammation, 1994)
Like-named read-outs stand apart in the source and are kept apart here.

Target: T1, soybean 15-lipoxygenase (Glycine max, UniProt P08170)
T1 construct: gene LOX1.1
T1 sequence (P08170 1-839): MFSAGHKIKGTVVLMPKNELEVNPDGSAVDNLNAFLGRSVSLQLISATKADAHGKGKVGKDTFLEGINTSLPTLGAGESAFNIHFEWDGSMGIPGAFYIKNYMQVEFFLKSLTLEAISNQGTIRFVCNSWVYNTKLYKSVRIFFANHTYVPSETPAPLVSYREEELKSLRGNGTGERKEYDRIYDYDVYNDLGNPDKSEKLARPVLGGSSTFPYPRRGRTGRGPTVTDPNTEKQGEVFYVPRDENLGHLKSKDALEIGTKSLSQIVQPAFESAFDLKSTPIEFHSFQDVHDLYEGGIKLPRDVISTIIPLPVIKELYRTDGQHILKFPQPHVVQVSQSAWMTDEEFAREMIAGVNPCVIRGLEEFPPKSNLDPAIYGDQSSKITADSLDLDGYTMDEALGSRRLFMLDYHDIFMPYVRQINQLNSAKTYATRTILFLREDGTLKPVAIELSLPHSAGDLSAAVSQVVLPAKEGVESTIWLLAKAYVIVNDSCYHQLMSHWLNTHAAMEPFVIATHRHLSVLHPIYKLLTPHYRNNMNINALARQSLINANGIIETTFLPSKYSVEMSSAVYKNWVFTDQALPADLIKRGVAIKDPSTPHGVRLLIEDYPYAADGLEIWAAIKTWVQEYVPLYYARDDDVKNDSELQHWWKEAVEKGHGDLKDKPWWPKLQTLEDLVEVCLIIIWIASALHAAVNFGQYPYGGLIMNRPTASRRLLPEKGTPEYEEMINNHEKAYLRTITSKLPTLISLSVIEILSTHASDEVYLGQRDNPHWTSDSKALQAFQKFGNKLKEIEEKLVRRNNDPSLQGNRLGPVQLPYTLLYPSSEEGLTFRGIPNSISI
Test: spectrophotometric assay at […] nm of […](S)-HPODE formation from linoleic acid, pH […]
Assay type: biochemical

SMILES	IC50 [µM]	IC50 (read-out: IC50) [µM]
CC1(C)CC[C@]2(C(=O)O)CC[C@]3(C)C(=CC[C@@H]4[C@@]5(C)CC[C@H](O)C(C)(C)[C@@H]5CC[C@]43C)[C@@H]2C1 [oleanolic acid]	265	–
C[C@H]1[C@H](C)CC[C@]2(C(=O)O)CC[C@]3(C)C(=CC[C@@H]4[C@@]5(C)CC[C@H](O)C(C)(C)[C@@H]5CC[C@]43C)[C@H]12 [ursolic acid]	–	175
